In brackets after ≈: the same amount, converted by molar mass.
System: E. coli DH5 cells
Assay: Minimum inhibitory concentration (MIC) of chloramphenicol in the specialized ribosome (CAT reporter) system
Type: cell-based
Conditions: Escherichia coli, DH5CELLS
Source text: To examine the role of potential interactions within the 530 loop (FIG. 3.1) nucleotides involved in the proposed interactions were randomly mutated using PCR and cloned into pRNA16ST, a derivative of pRNA122 (Lee et al., 1996; Lee et al., 1997). pRNA 16ST contains only the 16 S rRNA from the rrnB operon rather then the entire operon. […] In this specialized in vivo system, the chloramphenicol acetyltransferase (CAT) reporter message is translated exclusively by plasmid-derived ribosomes that cannot translate normal cellular messages (Lee et al., 1996; Lee et al., 1997). Thus, the minimal inhibitory concentration (MIC) of chloramphenicol for each mutant is correlated to the level of function of the plasmid-derived ribosomes. This allows for the selection of functional mutants on chloramphenicol containing media. Survivors were then sequenced and assayed for function by determining the MIC for each mutant.
Minimum inhibitory concentration (MIC). MICs were determined by standard methods in microtiter plates. Overnight cultures grown in LB-Ap100 were diluted and induced in the same medium containing 1 mM IPTG for two to three hours at 37° C. Approximately 10^4 induced cells were then added to wells containing LB-Ap100+IPTG (1 mM) and chloramphenicol at increasing concentrations.

O=C(N[C@H](CO)[C@H](O)c1ccc([N+](=O)[O-])cc1)C(Cl)Cl [chloramphenicol] gave an MIC (cells expressing wild-type ribosomes in the system (pRNA123)) of 700 µg/mL (≈ 2170 µM) and an MIC (uninduced wild-type plasmid (pRNA228) as well as a lethal clone) of 15 µg/mL (≈ 46.4 µM).

Reference: patent US8178659B2, “Targets for the identification of antibiotics that are not susceptible to antibiotic resistance” (priority 2005, dated 2012)
